Data as given in US7202265B2, “Indolinone combinatorial libraries and related products and methods for the treatment of disease” (Sugen, Inc., priority 1997, dated 2007).
Where two headings read alike, the source gives them in different places.

How the values were obtained:
FLK-1 receptor = biological target: T1, FLK-1 receptor (Mus musculus, UniProt P35918); experiment: FLK-1 ELISA (catalytic activity of the FLK-1 receptor in FLK-1/NIH3T3 cells); type: cell-based; set-up: Flk Kinase % Inhibition: concentration or dose not given beside the values; conditions: for IC50: read-out: FLK Kinase IC50; for Activity EC200: Table 8
T1 construct: expressed in transfected cells; host or cells: NIH3T3 C7#3 (FLK-1/NIH3T3)

EGFR = biological target: T2, EGFR (Homo sapiens, UniProt P00533); experiment: EGFR ELISA assay (in vitro kinase activity, A431 cell lysate); type: biochemical; set-up: concentration or dose not given beside the values
T2 construct: Add 7 ug A431 cell lysate per well (EGFR source); endogenous in cells; host or cells: A431 cells (lysate)
Experimental: To provide a consistent method for measuring the in vitro kinase activity of the EGFR in an Enzyme-linked immunosorbent assay (Elisa).
Scope. The following protocol describes the procedures used to analyze protein tyrosine kinase activity on the EGFR in an Elisa. The procedure also describes the protocol for the initial screening of drugs for inhibition or activation of protein tyrosine kinase activity.
1. Coat Corning 96-well elisa plates with 0.5 ug per well 05-101 antibody. • Bring final volume to 100 ul per well with PBS. • Coat plates overnight at […].
2. Remove unbound 05-101 from wells by inverting plate to remove liquid. • Wash 1× with distilled H2O by filling wells • Pat the plate on a paper towel to remove excess liquid.
3. Block plates with 5% milk in PBS. • 150 ul per well. • Incubate plate 30 minutes while shaking on a microtiter plate shaker.
4. Wash plate 3× with dionized water, then once with TBST
5. Add 7 ug A431 cell lysate per well (EGFR source). • Add PBS to final volume of 100 ul per well • Incubate 30 minutes while shaking.
6. Wash as described in step 4.
8. […] It is best to add the ATP/MnCl2 with an 12 channel pipettor 1 row at a time leaving 20 seconds between each row so that the reaction may be stopped with EDTA exactly 5 minutes later (this depends on the number of plates being phosphorylated in one batch). Shake between each addition.
9. After 5 minutes, to stop reaction, add 16.5 ul of 200 mM EDTA pH 8.0 for 20 mM final in well, shaking continuously between each addition. This is done using the same timing method as above. After last row has received EDTA, shake plate an additional minute.
10. Wash 4× with deionized water, twice with TBST.
11. Add rabbit polyclonal anti-phosphotyrosine serum. • Dilute 1:3000 in TBST. • Add 100 ul per well. • Incubate 30–45 minutes while shaking.
12. Wash as described above in step 4.
13. Add BioSource anti-rabbit peroxidase conjugate antibody. • Dilute 1:2000 in TBST. • Add 100 ul per well. • Incubate 30 minutes while shaking.
14. Wash as described in step 4.
15. Add 100 ul of ABTS/H2O2 solution to well. • Incubate 5 to 10 minutes while shaking. • Remove bubbles
16. If necessary stop reaction with the addition of 100 ul of 0.2M HCl per well
17. Read assay on Dynatech MR7000 elisa reader. • Test Filter: 410 nM • Reference Filter: 630 nM

human MET = experiment: MET biochemical kinase assay; set-up: concentration or dose not given beside the values
Procedure, shortened: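 MET captured from cell lysates onto plates coated with goat anti-rabbit Fc plus rabbit polyclonal anti-MET cytoplasmic-domain antibody; after washing, compounds added with kinase buffer containing ATP and divalent metal ions. Receptor tyrosine phosphorylation detected by HRP-conjugated anti-phosphotyrosine antibody, TMB colorimetric read-out.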

[1] = biological target: platelet derived growth factor protein kinase (PDGFR) (Homo sapiens, UniProt P09619); experiment: PDGF-R ELISA; type: cell-based; set-up: concentration or dose not given beside the values
Description: A PDGF-R ELISA is described in International Patent Publication No. WO 96/40116, published Dec. 19, 1996 by Tang et al.

Sequence of platelet derived growth factor protein kinase (PDGFR) (P09619 33-1106): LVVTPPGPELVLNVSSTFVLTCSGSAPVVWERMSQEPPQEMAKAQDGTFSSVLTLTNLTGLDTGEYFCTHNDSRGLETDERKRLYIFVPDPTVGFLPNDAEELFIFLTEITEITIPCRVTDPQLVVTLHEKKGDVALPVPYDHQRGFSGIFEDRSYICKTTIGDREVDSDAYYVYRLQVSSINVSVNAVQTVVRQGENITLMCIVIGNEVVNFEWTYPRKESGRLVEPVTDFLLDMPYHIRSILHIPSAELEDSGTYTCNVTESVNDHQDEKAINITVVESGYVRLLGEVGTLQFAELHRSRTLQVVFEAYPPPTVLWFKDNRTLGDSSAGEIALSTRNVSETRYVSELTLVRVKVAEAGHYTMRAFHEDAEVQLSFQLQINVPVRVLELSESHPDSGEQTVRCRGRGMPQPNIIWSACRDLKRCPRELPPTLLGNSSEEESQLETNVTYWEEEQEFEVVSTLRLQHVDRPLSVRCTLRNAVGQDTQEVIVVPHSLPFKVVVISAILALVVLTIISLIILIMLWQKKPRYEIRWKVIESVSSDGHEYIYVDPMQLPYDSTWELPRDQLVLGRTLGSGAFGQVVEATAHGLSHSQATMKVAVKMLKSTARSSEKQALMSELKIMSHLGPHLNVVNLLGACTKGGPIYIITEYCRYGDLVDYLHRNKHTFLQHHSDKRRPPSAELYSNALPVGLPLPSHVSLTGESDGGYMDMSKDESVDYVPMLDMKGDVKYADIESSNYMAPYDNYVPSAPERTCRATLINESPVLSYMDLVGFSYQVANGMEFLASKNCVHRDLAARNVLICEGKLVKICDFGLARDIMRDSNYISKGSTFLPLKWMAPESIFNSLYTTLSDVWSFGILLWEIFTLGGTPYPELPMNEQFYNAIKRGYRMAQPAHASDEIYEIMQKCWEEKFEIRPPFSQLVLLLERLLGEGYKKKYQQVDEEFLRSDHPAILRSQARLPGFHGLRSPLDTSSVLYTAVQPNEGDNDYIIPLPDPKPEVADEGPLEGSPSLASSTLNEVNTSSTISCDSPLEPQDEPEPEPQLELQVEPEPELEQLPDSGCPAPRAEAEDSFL
T1 sequence (P35918 20-1345): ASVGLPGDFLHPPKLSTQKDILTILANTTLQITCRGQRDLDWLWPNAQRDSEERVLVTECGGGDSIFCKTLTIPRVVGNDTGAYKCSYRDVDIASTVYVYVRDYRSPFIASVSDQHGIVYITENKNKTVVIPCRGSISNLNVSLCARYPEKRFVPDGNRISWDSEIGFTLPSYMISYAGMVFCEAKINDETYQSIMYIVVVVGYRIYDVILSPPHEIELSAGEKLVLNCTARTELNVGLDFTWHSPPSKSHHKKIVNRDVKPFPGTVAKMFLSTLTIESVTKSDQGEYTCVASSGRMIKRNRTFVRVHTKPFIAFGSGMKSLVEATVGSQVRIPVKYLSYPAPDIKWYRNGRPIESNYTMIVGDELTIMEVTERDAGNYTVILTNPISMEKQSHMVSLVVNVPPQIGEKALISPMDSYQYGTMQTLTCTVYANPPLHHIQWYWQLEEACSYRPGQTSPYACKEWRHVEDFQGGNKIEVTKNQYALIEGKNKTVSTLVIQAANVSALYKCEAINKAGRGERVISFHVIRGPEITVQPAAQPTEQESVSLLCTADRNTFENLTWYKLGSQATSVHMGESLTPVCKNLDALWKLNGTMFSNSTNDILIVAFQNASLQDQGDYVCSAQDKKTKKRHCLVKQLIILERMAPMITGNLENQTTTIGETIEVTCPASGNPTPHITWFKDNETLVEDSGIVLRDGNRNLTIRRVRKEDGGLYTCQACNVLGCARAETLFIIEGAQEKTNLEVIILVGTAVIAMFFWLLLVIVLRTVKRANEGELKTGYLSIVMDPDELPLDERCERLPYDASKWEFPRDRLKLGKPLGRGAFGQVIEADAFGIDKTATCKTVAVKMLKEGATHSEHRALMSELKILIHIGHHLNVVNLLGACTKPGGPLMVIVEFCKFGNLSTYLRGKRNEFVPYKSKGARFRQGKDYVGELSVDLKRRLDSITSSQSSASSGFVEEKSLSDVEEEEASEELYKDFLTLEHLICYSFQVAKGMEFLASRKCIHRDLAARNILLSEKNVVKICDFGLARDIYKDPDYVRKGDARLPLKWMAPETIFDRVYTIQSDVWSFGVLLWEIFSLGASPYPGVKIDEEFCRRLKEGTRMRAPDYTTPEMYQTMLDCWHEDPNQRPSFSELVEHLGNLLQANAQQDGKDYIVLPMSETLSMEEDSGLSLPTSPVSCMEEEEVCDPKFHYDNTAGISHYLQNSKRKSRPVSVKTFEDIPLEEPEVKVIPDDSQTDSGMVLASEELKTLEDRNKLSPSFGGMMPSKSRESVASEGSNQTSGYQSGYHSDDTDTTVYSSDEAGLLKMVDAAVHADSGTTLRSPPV
T2 sequence (P00533 25-1210): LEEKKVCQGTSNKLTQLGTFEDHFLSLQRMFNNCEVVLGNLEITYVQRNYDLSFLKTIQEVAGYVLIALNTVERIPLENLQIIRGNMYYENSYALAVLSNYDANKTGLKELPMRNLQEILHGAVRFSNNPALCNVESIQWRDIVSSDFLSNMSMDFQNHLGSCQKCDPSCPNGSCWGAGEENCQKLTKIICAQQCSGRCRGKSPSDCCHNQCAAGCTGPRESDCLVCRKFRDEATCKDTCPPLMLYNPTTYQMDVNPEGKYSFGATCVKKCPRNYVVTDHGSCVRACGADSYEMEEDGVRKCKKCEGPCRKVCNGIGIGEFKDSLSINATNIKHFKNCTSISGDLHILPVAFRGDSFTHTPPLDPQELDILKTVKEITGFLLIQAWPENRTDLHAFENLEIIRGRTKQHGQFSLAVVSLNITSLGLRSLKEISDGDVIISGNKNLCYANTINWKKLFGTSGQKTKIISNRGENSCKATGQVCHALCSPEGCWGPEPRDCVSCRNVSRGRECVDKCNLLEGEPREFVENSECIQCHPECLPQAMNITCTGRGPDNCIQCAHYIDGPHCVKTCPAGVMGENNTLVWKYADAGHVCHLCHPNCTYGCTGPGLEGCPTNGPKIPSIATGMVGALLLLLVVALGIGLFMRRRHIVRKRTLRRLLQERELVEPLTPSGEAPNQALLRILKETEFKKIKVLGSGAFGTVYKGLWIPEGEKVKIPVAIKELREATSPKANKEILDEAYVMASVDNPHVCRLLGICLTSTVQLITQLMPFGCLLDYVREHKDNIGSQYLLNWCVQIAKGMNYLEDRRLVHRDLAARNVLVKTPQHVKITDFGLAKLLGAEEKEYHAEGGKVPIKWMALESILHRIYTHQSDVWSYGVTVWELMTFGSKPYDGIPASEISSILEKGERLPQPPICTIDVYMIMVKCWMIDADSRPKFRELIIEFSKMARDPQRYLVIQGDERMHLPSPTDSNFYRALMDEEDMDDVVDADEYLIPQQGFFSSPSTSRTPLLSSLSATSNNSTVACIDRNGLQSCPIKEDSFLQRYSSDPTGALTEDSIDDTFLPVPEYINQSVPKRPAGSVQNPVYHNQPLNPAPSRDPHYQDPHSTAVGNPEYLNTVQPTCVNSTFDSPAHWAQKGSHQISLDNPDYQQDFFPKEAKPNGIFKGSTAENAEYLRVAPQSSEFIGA

SMILES | Flk Kinase % Inhibition (FLK-1 receptor) | Biochem EGFR % Inhibition (EGFR) | Met Kinase % Inhibition (human MET) | IC50 (FLK-1 receptor; Table 10) | also measured
O=C1Nc2ccc(I)cc2C1=Cc1cc([N+](=O)[O-])cc(CCl)c1O [10721/B06] | 3.4% | 71.5% | 92.4% | – | –
CNS(=O)(=O)c1ccc2c(c1)C(=Cc1ccc(F)cc1C(F)(F)F)C(=O)N2 [10719/D11] | −8.7% | −11.1% | 12.8% | – | –
Cc1cc(C=C2C(=O)Nc3ccc(I)cc32)sc1C [10721/B04] | 13.8% | 79.3% | 93.1% | – | –
CNS(=O)(=O)c1ccc2c(c1)C(=Cc1cccc(C#N)c1)C(=O)N2 [10727/D08] | – | – | 8.5% | – | PDGF Kinase % Inhibition [1]: 5.0%
Cc1ccc(C=C2C(=O)Nc3ccc(I)cc32)o1 [10725/B04] | 1.1% | 76.9% | 90.4% | – | PDGF Kinase % Inhibition [1]: 9.3%
O=C1Nc2ccc(I)cc2C1=Cc1csc([N+](=O)[O-])c1 [10722/B09] | 8.7% | 7.8% | 59.7% | – | PDGF Kinase % Inhibition [1]: 14.6%
O=C1Nc2ccc(I)cc2C1=Cc1ccc(Cl)s1 [10721/B07] | 11.2% | 47.6% | 47.1% | – | –
Cc1ccc(C=C2C(=O)Nc3c(Br)cc(Br)cc32)o1 [10725/A04] | −8.6% | 26.2% | 55.3% | – | PDGF Kinase % Inhibition [1]: −3.2%
Cn1cc(Cl)c(C=C2C(=O)Nc3ccc(I)cc32)n1 [10721/B03] | 19.9% | 38.9% | 70.8% | – | –
CNS(=O)(=O)c1ccc2c(c1)C(=Cc1c(OC)ccc3ccccc13)C(=O)N2 [10729/D02] | – | 5.7% | – | – | –
CC(C)(C)c1cc(/C=C2\C(=O)Nc3ccc([N+](=O)[O-])cc32)cc([N+](=O)[O-])c1OCc1ccccc1 | – | – | – | 16.4 µM | –
COC(=O)CCc1c[nH]c(/C=C2\C(=O)Nc3ccc(N)cc32)c1C | – | – | – | 4.7 µM | –
COC(=O)CCc1c[nH]c(/C=C2\C(=O)Nc3cccc(C)c32)c1C | – | – | – | 10.8 µM | –
CN(C)CCCOc1ccc(/C=C2\C(=O)Nc3ccccc32)cc1 | – | – | – | 4 µM | –
CCOC(=O)CCc1c(C(=O)OCC)[nH]c(C=C2C(=O)Nc3ccc(I)cc32)c1CC(=O)OCC [10718/B05] | 11.5% | 56.3% | 76.0% | – | –
O=C1Nc2ccc(CCCl)cc2C1=Cc1cccc(Br)c1 [10723/G10] | 3.5% | – | – | – | –
Cc1cc(C)c(/C=C2\C(=O)Nc3cccc(C)c32)[nH]1 | – | – | – | 7.3 µM | –
Cc1ccc(/C=C2\C(=O)Nc3ccc(C(=O)O)cc32)s1 | – | – | – | – | Activity EC200 (FLK-1 receptor): ActivityEC200 = 46 μm
COc1cccc(O)c1C=C1C(=O)Nc2ccc(S(=O)(=O)N3CCOCC3)cc21 [10717/F10] | −4.4% | – | – | – | –
CN(C)CCCOc1ccc(/C=C2\C(=O)Nc3ccc(N)cc32)cc1 | – | – | – | 13.7 µM | –
O=C1Nc2ccc(Cl)cc2/C1=C/c1ccc(N2CCCC2)cc1 | – | – | – | 12.3 µM | –
O=C1Nc2ccc(Cl)cc2/C1=C/c1ccc[nH]1 | – | – | – | 1.6 µM | –
Cc1cccc2c1/C(=C/c1cc(C(C)C)c(OCc3ccccc3)c(C(C)C)c1)C(=O)N2 | – | – | – | 19.9 µM | –
CCc1cc(CC)c(/C=C2\C(=O)Nc3ccccc32)[nH]1 | – | – | – | 8.1 µM | –
COc1c(I)cc(C=C2C(=O)Nc3ccc(S(=O)(=O)N4CCOCC4)cc32)cc1C(C)(C)C [10732/F11] | 14.1% | – | 65.1% | – | –

SMILES | Flk Kinase % Inhibition (FLK-1 receptor) | Biochem EGFR % Inhibition (EGFR) | Met Kinase % Inhibition (human MET) | IC50 (FLK-1 receptor; Table 10) | also measured
COC(=O)CCc1c[nH]c(/C=C2\C(=O)Nc3ccccc32)c1C | – | – | – | 12.5 µM | –
O=C1Nc2ccc(I)cc2C1=Cc1ccc([N+](=O)[O-])c(O)c1 [10724/B04] | −20.5% | 50.2% | 81.2% | – | PDGF Kinase % Inhibition [1]: 42.5%
Nc1ccc2c(c1)/C(=C/c1ccc(N3CCCC3)cc1)C(=O)N2 | – | – | – | 18.4 µM | –
Cn1cc(/C=C2\C(=O)Nc3ccc(F)cc32)c2ccccc21 | – | – | – | – | IC50 (FLK-1 receptor; Table 2): 14 µM
O=C1Nc2ccc(I)cc2C1=Cc1ccc2c(c1)Cc1ccccc1-2 [10728/B06] | 4.7% | 38.1% | 56.0% | – | PDGF Kinase % Inhibition [1]: 7.6%
COc1ccc(OC)c(/C=C2\C(=O)Nc3cccc(C)c32)c1 | – | – | – | 10.4 µM | –
Cc1cc(C)c(/C=C2\C(=O)Nc3ccc(C(=O)O)cc32)[nH]1 | – | – | – | – | Activity EC200 (FLK-1 receptor): ActivityEC200 = 2.8 μm
O=CN1CCN(c2ccc(/C=C3\C(=O)Nc4ccccc43)cc2)CC1 | – | – | – | 6.2 µM | –
O=CN1CCN(c2ccc(/C=C3\C(=O)Nc4ccc(Cl)cc43)cc2)CC1 | – | – | – | 5.8 µM | –
Cc1cccc2c1/C(=C/c1cn(C)c3ccccc13)C(=O)N2 | – | – | – | – | IC50 (FLK-1 receptor; Table 2): 7.7 µM
CC(C)(C)c1ccc(/C=C2\C(=O)Nc3ccccc32)cc1 | – | – | – | 9.7 µM | –
Cc1[nH]c(/C=C2\C(=O)Nc3ccc(N)cc32)c(Br)c1Br | – | – | – | 1.9 µM | –
Cc1cc(C=C2C(=O)Nc3ccc(I)cc32)cc(C)c1O [10722/B07] | 6.6% | 6.2% | 48.2% | – | PDGF Kinase % Inhibition [1]: 20.9%
CN(C)CCCOc1ccc(/C=C2\C(=O)Nc3ccc(Cl)cc32)cc1 | – | – | – | 11.5 µM | –
CN(C)c1ccc(C=C2C(=O)Nc3ccc(I)cc32)c2ccccc12 [10724/B02] | −6.2% | 34.9% | 48.8% | – | PDGF Kinase % Inhibition [1]: −21.5%
Cc1cc(C)c(/C=C2\C(=O)Nc3ccc(CCC(=O)O)cc32)[nH]1 | – | – | – | – | Activity EC200 (FLK-1 receptor): ActivityEC200 = 32 μm
O=C1Nc2ccc(Cl)cc2/C1=C/c1ccc(O)c(Br)c1 | – | – | – | 5.2 µM | –
Cc1cccc2c1/C(=C/c1ccc(OCCCN(C)C)cc1)C(=O)N2 | – | – | – | 8 µM | –
Cn1cc(/C=C2\C(=O)Nc3ccc(N)cc32)c2ccccc21 | – | – | – | – | IC50 (FLK-1 receptor; Table 2): 2.5 µM
COc1ccc(/C=C2\C(=O)Nc3ccccc32)cc1O | – | – | – | 2.9 µM | –
CCc1ccc(/C=C2\C(=O)Nc3ccccc32)cc1 | – | – | – | 20.3 µM | –
CCc1cc(CC)c(/C=C2\C(=O)Nc3ccc(N)cc32)[nH]1 | – | – | – | 5.6 µM | –
CCOC(=O)c1c(C)c(/C=C2\C(=O)Nc3ccccc32)n(C)c1C | – | – | – | 0.97 µM | –
Cn1c(C=C2C(=O)Nc3ccc(I)cc32)nc2ccccc21 [10721/B02] | 19.5% | 58.6% | 82.6% | – | –
